Test [1] addresses T1, Kras and SOS1 (biotin-tagged human Kras loaded with GDP, His-tagged human SOS1) (Homo sapiens, UniProt P01116, G12D).
T1 construct: made in house; host or cells: E. coli (stated for Kras only)
The test can be described thus: Protein-protein interaction inhibition between Kras and SOS1 (KrasGl2D-SOS PPI) using AlphaScreen. In kind it is binding. The following applies: AlphaScreen; biotin-tagged human Kras loaded with GDP, His-tagged human SOS1; read-out: KRAS G12D-SOS PPI IC50. A digest of the protocol:
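Donor beads (nickel) hold His-SOS1; acceptor beads (streptavidin) hold biotin-Kras bound to GDP. Signal measured at 520-620 nm following 680 nm excitation.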
On the technique in general: Bead proximity is the source of the signal in Alpha formats.

Test [2] deals with Human pancreatic cancer cell line AsPC-1. Nature of the test: Measurement of AsPC-1 cell growth inhibition (AsPC-1 CGI). It is filed as cell-based. To be noted: 96 h. A digest of the protocol: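 AsPC-1 cells in 15% FBS RPMI-1640 were exposed to test compound for 96 hours at 37° C, with CellTiter-Glo as endpoint.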

Starred links: 1 amine or outer side, 2 acyl side, 3 side chain; linkers in the order of their positions; H or OH if unused. Positions of bridges follow the written chain, without caps; N, C: chain ends. Non-standard residues stand in square brackets, D forms with d. Residues, ends and D or L forms follow the SMILES beside them. *: point of attachment. hPhe(3-Cl-4-CF3) = N[C@@H](CCc1ccc(C(F)(F)F)c(Cl)c1)C(=O)O; NMePhe(2-CF3) = CN[C@@H](Cc1ccccc1C(F)(F)F)C(=O)O; NMePhe(3-Br) = CN[C@@H](Cc1cccc(Br)c1)C(=O)O; NMePhe(4-Br) = CN[C@@H](Cc1ccc(Br)cc1)C(=O)O; NMePhe(4-Me) = CN[C@@H](Cc1ccc(C)cc1)C(=O)O; NMePhe(4-F) = CN[C@@H](Cc1ccc(F)cc1)C(=O)O; NMePhe(2-Me) = CN[C@@H](Cc1ccccc1C)C(=O)O; NMedβ3hAla = C[C@H](CC(=O)[*:2])N(C)[*:1]; NMePhe(2-F) = CN[C@@H](Cc1ccccc1F)C(=O)O; NMeY = CN[C@@H](Cc1ccc(O)cc1)C(=O)O; NMeF = CN[C@@H](Cc1ccccc1)C(=O)O; NMeD = CN[C@@H](CC(=O)O)C(=O)O; NMeL = CN[C@@H](CC(C)C)C(=O)O; NMeV = CN[C@H](C(=O)O)C(C)C; d(β3hA) = C[C@@H](N)CC(=O)O; Piperidide = C1CCN(*)CC1; Ac5c = NC1(C(=O)O)CCCC1; Sar = CNCC(=O)O

T1 sequence (P01116 1-188 isoform P01116-2 G12D): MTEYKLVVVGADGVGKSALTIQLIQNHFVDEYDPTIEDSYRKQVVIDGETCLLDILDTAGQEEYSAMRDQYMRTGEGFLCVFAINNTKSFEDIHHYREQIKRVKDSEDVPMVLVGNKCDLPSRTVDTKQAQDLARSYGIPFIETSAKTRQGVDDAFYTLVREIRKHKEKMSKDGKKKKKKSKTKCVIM

For `CC[C@H](C)[C@@H]1NC(=O)[C@H](CC(C)C)N(C)C(=O)C[C@@H](C(=O)N2CCCCC2)N(C)C(=O)[C@H](C(C)C)N(C)C(=O)C2(CCCC2)NC(=O)[C@@H]2CCCN2C(=O)[C@H](CCc2ccc(C(F)(F)F)c(Cl)c2)NC(=O)CN(C)C(=O)[C@H](Cc2ccc(Br)cc2)N(C)C(=O)CN(C)C(=O)CN(C)C1=O` [Compound 1576] ([NMeL]I[Sar][Sar][NMePhe(4-Br)][Sar][hPhe(3-Cl-4-CF3)]P[Ac5c][NMeV][NMeD]-Piperidide; lactam N-11), the results for the IC50 in test [1] and in test [2] were 5.1 nM and 100 to 500 nM, respectively.
With `CC[C@H](C)[C@@H]1NC(=O)[C@H](CC(C)C)N(C)C(=O)C[C@@H](C(=O)N2CCCCC2)N(C)C(=O)[C@H](C(C)C)N(C)C(=O)C2(CCCC2)NC(=O)[C@@H]2CCCN2C(=O)[C@H](CCc2ccc(C(F)(F)F)c(Cl)c2)NC(=O)CN(C)C(=O)[C@H](Cc2ccccc2C(F)(F)F)N(C)C(=O)CN(C)C(=O)CN(C)C1=O` [Compound 1579] ([NMeL]I[Sar][Sar][NMePhe(2-CF3)][Sar][hPhe(3-Cl-4-CF3)]P[Ac5c][NMeV][NMeD]-Piperidide; lactam N-11), the IC50 (as a rule, the concentration that inhibits the measured activity by half) was 8.2 nM in test [1] and 100 to 500 nM in test [2].
The like results for `CC[C@H](C)[C@@H]1NC(=O)[C@H](CC(C)C)N(C)C(=O)C[C@@H](C(=O)N2CCCCC2)N(C)C(=O)[C@H](C(C)C)N(C)C(=O)C2(CCCC2)NC(=O)[C@@H]2CCCN2C(=O)[C@H](CCc2ccc(C(F)(F)F)c(Cl)c2)NC(=O)CN(C)C(=O)[C@H](Cc2ccccc2F)N(C)C(=O)CN(C)C(=O)CN(C)C1=O` [Compound 1583] ([NMeL]I[Sar][Sar][NMePhe(2-F)][Sar][hPhe(3-Cl-4-CF3)]P[Ac5c][NMeV][NMeD]-Piperidide; lactam N-11) were, in that order, 12 nM and 100 to 500 nM.
Take `CC[C@H](C)[C@@H]1NC(=O)[C@H](CC(C)C)N(C)C(=O)C[C@@H](C(=O)N2CCCCC2)N(C)C(=O)[C@H](C(C)C)N(C)C(=O)C2(CCCC2)NC(=O)[C@@H]2CCCN2C(=O)[C@H](CCc2ccc(C(F)(F)F)c(Cl)c2)NC(=O)CN(C)C(=O)[C@H](Cc2ccccc2C)N(C)C(=O)CN(C)C(=O)CN(C)C1=O` [Compound 1584] ([NMeL]I[Sar][Sar][NMePhe(2-Me)][Sar][hPhe(3-Cl-4-CF3)]P[Ac5c][NMeV][NMeD]-Piperidide; lactam N-11): the IC50 is 9.5 nM in test [1] and 100 to 500 nM in test [2].
`CC[C@H](C)[C@@H]1NC(=O)[C@H](CC(C)C)N(C)C(=O)C[C@@H](C(=O)N2CCCCC2)N(C)C(=O)[C@H](C(C)C)N(C)C(=O)C2(CCCC2)NC(=O)[C@@H]2CCCN2C(=O)[C@H](CCc2ccc(C(F)(F)F)c(Cl)c2)NC(=O)CN(C)C(=O)[C@H](Cc2ccc(OC)cc2)N(C)C(=O)CN(C)C(=O)CN(C)C1=O` [Compound 1588] ([NMeL]I[Sar][Sar][NMeY](Me)[Sar][hPhe(3-Cl-4-CF3)]P[Ac5c][NMeV][NMeD]-Piperidide; lactam N-11): the IC50 in test [1] is 4.1 nM; in test [2], 100 to 500 nM.
The like results for `CC[C@H](C)[C@@H]1NC(=O)[C@H](CC(C)C)N(C)C(=O)C[C@@H](C)N(C)C(=O)[C@H](C(C)C)N(C)C(=O)C2(CCCC2)NC(=O)[C@@H]2CCCN2C(=O)[C@H](CCc2ccc(C(F)(F)F)c(Cl)c2)NC(=O)CN(C)C(=O)[C@H](COc2ccccc2Cl)N(C)C(=O)CN(C)C(=O)CN(C)C1=O` [Compound 1589] were, in that order, 39 nM and 100 to 500 nM.
For `CC[C@H](C)[C@@H]1NC(=O)[C@H](CC(C)C)N(C)C(=O)C[C@@H](C)N(C)C(=O)[C@H](C(C)C)N(C)C(=O)C2(CCCC2)NC(=O)[C@@H]2CCCN2C(=O)[C@H](CCc2ccc(C(F)(F)F)c(Cl)c2)NC(=O)CN(C)C(=O)[C@H](Cc2ccc(Br)cc2)N(C)C(=O)CN(C)C(=O)CN(C)C1=O` [Compound 1590] (cyclo([Ac5c][NMeV][NMedβ3hAla][NMeL]I[Sar][Sar][NMePhe(4-Br)][Sar][hPhe(3-Cl-4-CF3)]P)) the same measures were 3.2 nM and 50 to 100 nM.
For `CC[C@H](C)[C@@H]1NC(=O)[C@H](CC(C)C)N(C)C(=O)C[C@@H](C(=O)N2CCCCC2)N(C)C(=O)[C@H](C(C)C)N(C)C(=O)C2(CCCC2)NC(=O)[C@@H]2CCCN2C(=O)[C@H](CCc2ccc(C(F)(F)F)c(Cl)c2)NC(=O)CN(C)C(=O)[C@H](Cc2ccc(C)cc2)N(C)C(=O)CN(C)C(=O)CN(C)C1=O` [Compound 1594] ([NMeL]I[Sar][Sar][NMePhe(4-Me)][Sar][hPhe(3-Cl-4-CF3)]P[Ac5c][NMeV][NMeD]-Piperidide; lactam N-11), the IC50 in test [1] was 3.2 nM; in test [2], 100 to 500 nM.
On to `CC[C@H](C)[C@@H]1NC(=O)[C@H](CC(C)C)N(C)C(=O)C[C@@H](C)N(C)C(=O)[C@H](C(C)C)N(C)C(=O)C2(CCCC2)NC(=O)[C@@H]2CCCN2C(=O)[C@H](CCc2ccc(C(F)(F)F)c(Cl)c2)NC(=O)CN(C)C(=O)[C@H](Cc2cccc(Br)c2)N(C)C(=O)CN(C)C(=O)CN(C)C1=O` [Compound 1597] (cyclo([Ac5c][NMeV][NMedβ3hAla][NMeL]I[Sar][Sar][NMePhe(3-Br)][Sar][hPhe(3-Cl-4-CF3)]P)), for which the IC50 in test [1] is 11 nM; in test [2], 50 to 100 nM.
As to `CC[C@H](C)[C@@H]1NC(=O)[C@H](CC(C)C)N(C)C(=O)C[C@@H](C(=O)N2CCCCC2)N(C)C(=O)[C@H](C(C)C)N(C)C(=O)C2(CCCC2)NC(=O)[C@@H]2CCCN2C(=O)[C@H](CCc2ccc(C(F)(F)F)c(Cl)c2)NC(=O)CN(C)C(=O)[C@H](Cc2ccccc2)N(C)C(=O)CN(C)C(=O)CN(C)C1=O` [Compound 1598] ([NMeL]I[Sar][Sar][NMeF][Sar][hPhe(3-Cl-4-CF3)]P[Ac5c][NMeV][NMeD]-Piperidide; lactam N-11), the IC50 is 9.2 nM in test [1] and 100 to 500 nM in test [2].
On to `CC[C@H](C)[C@@H]1NC(=O)[C@H](CC(C)C)N(C)C(=O)C[C@@H](C)N(C)C(=O)[C@H](C(C)C)N(C)C(=O)C2(CCCC2)NC(=O)[C@@H]2CCCN2C(=O)[C@H](CCc2ccc(C(F)(F)F)c(Cl)c2)NC(=O)CN(C)C(=O)[C@H](Cc2ccccc2F)N(C)C(=O)CN(C)C(=O)CN(C)C1=O` [Compound 1599] (cyclo([Ac5c][NMeV][NMedβ3hAla][NMeL]I[Sar][Sar][NMePhe(2-F)][Sar][hPhe(3-Cl-4-CF3)]P)), for which the results for the IC50 in test [1] and in test [2] were 17 nM and 100 to 500 nM, respectively.
For `CC[C@H](C)[C@@H]1NC(=O)[C@H](CC(C)C)N(C)C(=O)C[C@@H](C)NC(=O)[C@H](C(C)C)N(C)C(=O)C2(CCCC2)NC(=O)[C@@H]2CCCN2C(=O)[C@H](CCc2ccc(C(F)(F)F)c(Cl)c2)NC(=O)CN(C)C(=O)[C@H](Cc2ccc(F)cc2)N(C)C(=O)CN(C)C(=O)CN(C)C1=O` [Compound 1602] (cyclo([Ac5c][NMeV][d(β3hA)][NMeL]I[Sar][Sar][NMePhe(4-F)][Sar][hPhe(3-Cl-4-CF3)]P)) the same measures were 6.3 nM and 100 to 500 nM.
For `CC[C@H](C)[C@@H]1NC(=O)[C@H](CC(C)C)N(C)C(=O)C[C@@H](C)N(C)C(=O)[C@H](C(C)C)N(C)C(=O)C2(CCCC2)NC(=O)[C@@H]2CCCN2C(=O)[C@H](CCc2ccc(C(F)(F)F)c(Cl)c2)NC(=O)CN(C)C(=O)[C@H](Cc2ccccc2)N(C)C(=O)CN(C)C(=O)CN(C)C1=O` [Compound 1604] (cyclo([Ac5c][NMeV][NMedβ3hAla][NMeL]I[Sar][Sar][NMeF][Sar][hPhe(3-Cl-4-CF3)]P)) the same measures were 5.8 nM and 50 to 100 nM.

Source of the values: patent US12371454B2, “Cyclic peptide compound having Kras inhibitory action” (priority 2019, dated 2025).
